According to patent publication US10800791B2, “Triazole ACC inhibitors and uses thereof” (Gilead Apollo, LLC, priority 2015, dated 2020):
Converted amounts (≈) assume the structure as drawn. Where two headings read alike, the source gives them in different places.

What was measured:
C. albicans = test: Antifungal Activity Assay (broth microtiter MIC), C. albicans; assay type: cell-based, Candida albicans; settings: Candida albicans, ATCC90028, 48 h
How it was run: (§1)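 CLSI M27-A3 broth microdilution in RPMI 1640+MOPS, final inoculum 2.5×10^3 CFU/mL from overnight Sabouraud cultures grown at 35 °C. MIC read visually at 48 h against growth control.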

C. krusei = test: Antifungal Activity Assay (broth microtiter MIC), C. krusei; assay type: cell-based, Candida krusei; settings: Pichia kudriavzevii, ATCC6258, 48 h
How it was run: as §1

C. parapsilosis = test: Antifungal Activity Assay (broth microtiter MIC), C. parapsilosis; assay type: cell-based, Candida parapsilosis; settings: Lodderomyces parapsilosis, ATCC22019, 48 h
How it was run: as §1

Botrtyis cinerea (Bc) = test: Growth inhibition assay of fungal pathogens, Bc; assay type: cell-based; settings: 48 h
How it was run: (§2)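 Spores diluted in 17% V8 liquid media and incubated with compound at final 50, 10, 2 ppm or 2, 0.4, 0.08 ppm (2% DMSO). OD600 plus visual ratings at 24 and 48 hours, blank-subtracted; percent growth inhibition from 48 h readings relative to 2% DMSO control.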

[1] = tested on: Collectotrichum graminicola (Cg); test: Growth inhibition assay of fungal pathogens, Cg; assay type: cell-based; settings: 48 h
How it was run: as §2

Diplodia maydis (Dm) = test: Growth inhibition assay of fungal pathogens, Dm; assay type: cell-based; settings: Stenocarpella maydis, 48 h
How it was run: as §2

[2] = tested on: Fusarium moniliforme (Fm); test: Growth inhibition assay of fungal pathogens, Fm; assay type: cell-based; settings: for IC90: Fusarium verticillioides, 48 h, read-out: Concentration at 90% Inhibition Fm
How it was run: as §2

[3] = tested on: Fusarium virguliforme (Fv); test: Growth inhibition assay of fungal pathogens, Fv; assay type: cell-based; settings: 48 h
How it was run: as §2

[4] = tested on: Phytophthora capsici (Pc); test: Growth inhibition assay of fungal pathogens, Pc; assay type: cell-based; settings: 48 h
How it was run: as §2

Septoria tritici (St) = test: Growth inhibition assay of fungal pathogens, St; assay type: cell-based; settings: Zymoseptoria tritici, 48 h
How it was run: as §2

fungal (fACC2) = fungal (fACC2) (UniProt Q00955); settings: read-out: fACC2 (in vitro ACC2 Inhibition Assay, IC50), ADP-Glo, 5 nM ACC2, 20 μM ATP, 20 μM acetyl-CoA
[5] = Fusarium moniliforme, growth inhibition at 48 hours vs 2% DMSO control

Sequence of fungal (fACC2) (Q00955 whole entry): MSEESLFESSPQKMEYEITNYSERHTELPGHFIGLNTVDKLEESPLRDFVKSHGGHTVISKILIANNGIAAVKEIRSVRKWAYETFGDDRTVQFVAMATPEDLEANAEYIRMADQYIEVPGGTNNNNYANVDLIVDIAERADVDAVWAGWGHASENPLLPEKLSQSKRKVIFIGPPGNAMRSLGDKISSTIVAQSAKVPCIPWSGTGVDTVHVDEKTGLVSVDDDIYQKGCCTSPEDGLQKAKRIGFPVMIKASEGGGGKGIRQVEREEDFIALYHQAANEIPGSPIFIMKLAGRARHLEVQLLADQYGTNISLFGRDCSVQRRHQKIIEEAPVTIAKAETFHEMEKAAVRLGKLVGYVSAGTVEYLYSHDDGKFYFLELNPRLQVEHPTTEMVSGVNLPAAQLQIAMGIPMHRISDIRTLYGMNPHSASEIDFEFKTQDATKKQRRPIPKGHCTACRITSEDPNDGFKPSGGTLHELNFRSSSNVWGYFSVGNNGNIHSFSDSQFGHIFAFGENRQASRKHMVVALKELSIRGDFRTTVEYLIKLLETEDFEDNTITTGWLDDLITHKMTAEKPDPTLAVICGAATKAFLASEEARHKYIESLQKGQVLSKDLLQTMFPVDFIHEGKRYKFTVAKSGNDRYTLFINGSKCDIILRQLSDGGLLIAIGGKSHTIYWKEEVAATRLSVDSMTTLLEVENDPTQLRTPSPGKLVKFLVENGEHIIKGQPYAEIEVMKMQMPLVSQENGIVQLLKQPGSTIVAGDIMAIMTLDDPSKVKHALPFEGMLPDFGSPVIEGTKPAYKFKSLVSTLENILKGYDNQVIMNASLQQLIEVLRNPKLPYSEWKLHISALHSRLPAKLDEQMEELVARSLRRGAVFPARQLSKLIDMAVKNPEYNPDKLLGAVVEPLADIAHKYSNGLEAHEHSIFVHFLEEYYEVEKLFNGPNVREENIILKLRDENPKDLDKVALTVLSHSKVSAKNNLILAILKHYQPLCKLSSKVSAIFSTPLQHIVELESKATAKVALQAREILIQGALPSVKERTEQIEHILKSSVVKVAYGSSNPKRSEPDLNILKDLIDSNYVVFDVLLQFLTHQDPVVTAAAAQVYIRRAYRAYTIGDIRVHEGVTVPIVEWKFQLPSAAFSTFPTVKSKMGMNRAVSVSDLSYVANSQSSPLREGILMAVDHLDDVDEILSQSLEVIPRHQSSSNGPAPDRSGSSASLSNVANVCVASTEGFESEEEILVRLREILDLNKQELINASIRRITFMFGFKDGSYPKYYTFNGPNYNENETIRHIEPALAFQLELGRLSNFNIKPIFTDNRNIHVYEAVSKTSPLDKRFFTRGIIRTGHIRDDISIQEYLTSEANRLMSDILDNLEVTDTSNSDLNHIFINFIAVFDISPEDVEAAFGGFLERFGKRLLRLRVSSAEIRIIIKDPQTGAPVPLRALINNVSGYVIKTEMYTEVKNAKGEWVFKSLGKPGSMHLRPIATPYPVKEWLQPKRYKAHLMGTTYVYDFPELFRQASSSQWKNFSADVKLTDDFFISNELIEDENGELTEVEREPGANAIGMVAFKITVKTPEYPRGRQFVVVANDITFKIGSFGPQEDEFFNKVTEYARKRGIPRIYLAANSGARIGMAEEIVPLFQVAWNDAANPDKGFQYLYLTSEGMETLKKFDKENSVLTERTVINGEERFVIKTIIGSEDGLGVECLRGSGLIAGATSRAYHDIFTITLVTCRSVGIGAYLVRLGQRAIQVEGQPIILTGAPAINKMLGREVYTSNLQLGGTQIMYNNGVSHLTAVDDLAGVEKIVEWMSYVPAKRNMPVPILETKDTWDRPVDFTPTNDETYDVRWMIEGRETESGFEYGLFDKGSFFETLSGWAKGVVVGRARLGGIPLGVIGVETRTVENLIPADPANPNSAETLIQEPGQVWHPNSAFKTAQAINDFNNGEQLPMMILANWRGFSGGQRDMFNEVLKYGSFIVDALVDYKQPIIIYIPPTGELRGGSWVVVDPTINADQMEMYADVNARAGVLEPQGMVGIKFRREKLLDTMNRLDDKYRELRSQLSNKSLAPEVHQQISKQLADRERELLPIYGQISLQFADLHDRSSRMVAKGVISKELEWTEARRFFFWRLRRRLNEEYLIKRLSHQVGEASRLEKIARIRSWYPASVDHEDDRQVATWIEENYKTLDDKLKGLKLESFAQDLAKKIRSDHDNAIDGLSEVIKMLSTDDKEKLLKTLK

In the case of `COc1ccc(F)cc1[C@H](Cn1c(=O)n(CC(=O)NC(C)C)c(=O)c2c(C)c(-n3nccn3)sc21)OC(C)C` [Compound I-35, (R)-2-(1-(2-(5-fluoro-2-methoxyphenyl)-2-isopropoxy-ethyl)-5-methyl-2,4-dioxo-6-(2H-1,2,3-triazol-2-yl)-1,4-dihydrothieno[2,3-d]pyrimidin-3(2H)-yl)-N-isopropylacetamide], the MIC (C. albicans; read-out: MIC, C. albicans ATCC 90028, Table 3a, 3 replicates, MIC recorded at 48 h) is reported as 2.1 to 4 µg/mL (≈ 3.76 to 7.16 µM), the MIC (C. albicans; read-out: MIC, C. albicans ATCC 90028, Table 3b (additional results), 3 replicates, MIC recorded at 48 h) is reported as 2.01 to 4 µg/mL (≈ 3.6 to 7.16 µM) and the MIC (C. krusei; read-out: MIC, C. krusei ATCC 6258, Table 3a, 3 replicates, MIC recorded at 48 h) is reported as 2.1 to 4 µg/mL (≈ 3.76 to 7.16 µM). It also gave an MIC (C. krusei; read-out: MIC, C. krusei ATCC 6258, Table 3b (additional results), 3 replicates, MIC recorded at 48 h) greater than 4.01 µg/mL, an MIC (C. parapsilosis; read-out: MIC, C. parapsilosis ATCC 22019, Table 3a, 3 replicates, MIC recorded at 48 h) of 2.1 to 4 µg/mL (≈ 3.76 to 7.16 µM) and an MIC (C. parapsilosis; read-out: MIC, C. parapsilosis ATCC 22019, Table 3b (additional results), 3 replicates, MIC recorded at 48 h) of 2.01 to 4 µg/mL (≈ 3.6 to 7.16 µM). For the same compound, the IC90 (Botrtyis cinerea (Bc); read-out: Concentration at 90% Inhibition Bc, Botrtyis cinerea, growth inhibition at 48 hours vs 2% DMSO control) was 0.4 µg/mL (≈ 0.716 µM), the IC90 (Botrtyis cinerea (Bc); read-out: Concentration at 90% Inhibition Bc, Botrtyis cinerea, growth inhibition vs 2% DMSO control at 48 hours) was 0.4 µg/mL (≈ 0.716 µM) and the IC90 ([1]; read-out: Concentration at 90% Inhibition Cg, Collectotrichum graminicola, growth inhibition at 48 hours vs 2% DMSO control) was greater than 50 µg/mL. It also gave an IC90 ([1]; read-out: Concentration at 90% Inhibition Cg, Collectotrichum graminicola, growth inhibition vs 2% DMSO control at 48 hours) greater than 50 µg/mL, an IC90 (Diplodia maydis (Dm); read-out: Concentration at 90% Inhibition Dm, Diplodia maydis, growth inhibition at 48 hours vs 2% DMSO control) of 0.4 µg/mL (≈ 0.716 µM) and an IC90 (Diplodia maydis (Dm); read-out: Concentration at 90% Inhibition Dm, Diplodia maydis, growth inhibition vs 2% DMSO control at 48 hours) of 0.4 µg/mL (≈ 0.716 µM). For the same compound, the “Concentration at 90% Inhibition Fm” value [2, 5] was “AA (compound concentration of 0.08 ppm at 90% inhibition of fungal pathogens)”, the IC90 [2] was 0.08 µg/mL (≈ 0.143 µM) and the IC90 ([3]; read-out: Concentration at 90% Inhibition Fv, Fusarium virguliforme, growth inhibition at 48 hours vs 2% DMSO control) was 0.4 µg/mL (≈ 0.716 µM). The IC90 ([3]; read-out: Concentration at 90% Inhibition Fv, Fusarium virguliforme, growth inhibition vs 2% DMSO control at 48 hours) was 0.4 µg/mL (≈ 0.716 µM), the IC90 ([4]; read-out: Concentration at 90% Inhibition Pc, Phytophthora capsici, growth inhibition at 48 hours vs 2% DMSO control) was greater than 50 µg/mL and the IC90 ([4]; read-out: Concentration at 90% Inhibition Pc, Phytophthora capsici, growth inhibition vs 2% DMSO control at 48 hours) was greater than 50 µg/mL. The IC90 (Septoria tritici (St); read-out: Concentration at 90% Inhibition St, Septoria tritici, growth inhibition at 48 hours vs 2% DMSO control) was greater than 50 µg/mL, the IC90 (Septoria tritici (St); read-out: Concentration at 90% Inhibition St, Septoria tritici, growth inhibition vs 2% DMSO control at 48 hours) was greater than 50 µg/mL and the IC50 (fungal (fACC2); Table 2a) was 1 to 5 nM. For the same compound, the IC50 (fungal (fACC2); Table 2b, additional results) was 1 to 5 nM.
`CCO[C@@H](Cn1c(=O)n(C(C)(C)C(=O)N2CCCC2)c(=O)c2c(C)c(-n3nccn3)sc21)c1cc(F)ccc1OC` [Compound I-42, (R)-1-(2-ethoxy-2-(5-fluoro-2-methoxyphenyl)ethyl)-5-methyl-3-(2-methyl-1-oxo-1-(pyrrolidin-1-yl)propan-2-yl)-6-(2H-1,2,3-triazol-2-yl)thieno[2,3-d]pyrimidine-2,4(1H,3H)-dione] was tested, and the MIC (C. albicans; Table 3a, ATCC 90028, 3 replicates, MIC recorded at 48 h, read-out: MIC, C. albicans ATCC 90028) was 1.1 to 2 µg/mL (≈ 1.88 to 3.42 µM), the MIC (C. albicans; Table 3b (additional results), ATCC 90028, 3 replicates, MIC recorded at 48 h, read-out: MIC, C. albicans ATCC 90028) was 2.01 to 4 µg/mL (≈ 3.44 to 6.84 µM) and the MIC (C. krusei; Table 3a, ATCC 6258, 3 replicates, MIC recorded at 48 h, read-out: MIC, C. krusei ATCC 6258) was 0.25 to 1 µg/mL (≈ 0.428 to 1.71 µM). It also gave an MIC (C. krusei; Table 3b (additional results), ATCC 6258, 3 replicates, MIC recorded at 48 h, read-out: MIC, C. krusei ATCC 6258) of 1.01 to 2 µg/mL (≈ 1.73 to 3.42 µM), an MIC (C. parapsilosis; Table 3a, ATCC 22019, 3 replicates, MIC recorded at 48 h, read-out: MIC, C. parapsilosis ATCC 22019) of 1.1 to 2 µg/mL (≈ 1.88 to 3.42 µM) and an MIC (C. parapsilosis; Table 3b (additional results), ATCC 22019, 3 replicates, MIC recorded at 48 h, read-out: MIC, C. parapsilosis ATCC 22019) of 1.01 to 2 µg/mL (≈ 1.73 to 3.42 µM). For the same compound, the IC90 (Botrtyis cinerea (Bc); Botrtyis cinerea, growth inhibition at 48 hours vs 2% DMSO control, read-out: Concentration at 90% Inhibition Bc) was 0.4 µg/mL (≈ 0.684 µM), the IC90 (Botrtyis cinerea (Bc); Botrtyis cinerea, growth inhibition vs 2% DMSO control at 48 hours, read-out: Concentration at 90% Inhibition Bc) was 0.4 µg/mL (≈ 0.684 µM) and the IC90 ([1]; Collectotrichum graminicola, growth inhibition at 48 hours vs 2% DMSO control, read-out: Concentration at 90% Inhibition Cg) was 0.08 µg/mL (≈ 0.137 µM). It also gave an IC90 ([1]; Collectotrichum graminicola, growth inhibition vs 2% DMSO control at 48 hours, read-out: Concentration at 90% Inhibition Cg) of 0.08 µg/mL (≈ 0.137 µM), an IC90 (Diplodia maydis (Dm); Diplodia maydis, growth inhibition at 48 hours vs 2% DMSO control, read-out: Concentration at 90% Inhibition Dm) of 0.4 µg/mL (≈ 0.684 µM) and an IC90 (Diplodia maydis (Dm); Diplodia maydis, growth inhibition vs 2% DMSO control at 48 hours, read-out: Concentration at 90% Inhibition Dm) of 0.4 µg/mL (≈ 0.684 µM). The IC90 [2, 5] was 0.08 µg/mL (≈ 0.137 µM), the IC90 ([2]; Fusarium moniliforme, growth inhibition vs 2% DMSO control at 48 hours) was 0.08 µg/mL (≈ 0.137 µM) and the IC90 ([3]; growth inhibition at 48 hours vs 2% DMSO control, read-out: Concentration at 90% Inhibition Fv) was 0.08 µg/mL (≈ 0.137 µM). It also gave an IC90 ([3]; growth inhibition vs 2% DMSO control at 48 hours, read-out: Concentration at 90% Inhibition Fv) of 0.08 µg/mL (≈ 0.137 µM), an IC90 ([4]; growth inhibition at 48 hours vs 2% DMSO control, read-out: Concentration at 90% Inhibition Pc) greater than 50 µg/mL and an IC90 ([4]; growth inhibition vs 2% DMSO control at 48 hours, read-out: Concentration at 90% Inhibition Pc) greater than 50 µg/mL. The IC90 (Septoria tritici (St); Septoria tritici, growth inhibition at 48 hours vs 2% DMSO control, read-out: Concentration at 90% Inhibition St) was 2 µg/mL (≈ 3.42 µM), the IC90 (Septoria tritici (St); Septoria tritici, growth inhibition vs 2% DMSO control at 48 hours, read-out: Concentration at 90% Inhibition St) was 10 µg/mL (≈ 17.1 µM) and the IC50 (fungal (fACC2); Table 2a) was 1 to 5 nM. For the same compound, the IC50 (fungal (fACC2); Table 2b, additional results) was 1 to 5 nM.
